The values below come from ChEMBL document CHEMBL4311961, “Inhaled Janus Kinase (JAK) inhibitors for the treatment of asthma” (Bioorg Med Chem Lett, 2019).

Structures are written as SMILES. ≈ marks a conversion by molar mass, not a printed value.

Data set [1] relates to Rattus norvegicus. Briefly: In vivo inhibition of eosinophils in rat bronchoalveolar lavage fluid at 4.76 ug/kg administered as dry powder inhalation relative to control. The class given is functional. As to conditions: inhaled or nasal.
For data set [2], the system named is Rattus norvegicus. Briefly: In vivo inhibition of eosinophils in rat bronchoalveolar lavage fluid at 0.6 ug/kg administered as dry powder inhalation relative to control. The class given is functional. As to conditions: inhaled or nasal.
The nature of data set [3]: Kinetic solubility of the compound at pH 7.4. The settings on record: buffer, read-out: Kinetic_solubility. The class given is physicochemical.
Data set [4] can be described thus: Apparent permeability from apical to basolateral side in MDCK cells. The class given is ADME, cell-based, Canis lupus familiaris. As to conditions: dog.
The target in data set [5] is Janus Kinase (JAK) (Homo sapiens) (UniProt P52333+P23458+O60674+P29597).
Description: Binding affinity to JAK in human PBMC assessed as half life measured after compound washout was out
Data set [6] in a line: Dissociation constant, pKa of compound. The class given is physicochemical.
Another data set deals with Mus musculus. Description: In vivo inhibition of IL13 induced STAT6 phosphorylation in mouse lung administered as i.t dose relative to ocntrol. The class given is functional.

Broadly, the inhibition in vivo is the percentage by which the read-out fell short of the control. A higher inhibition in vivo goes with a response far below the control. In the data set with Rattus norvegicus [1], `COC[C@H](C(=O)Nc1cccc2c(-c3nc(Nc4cccc(S(C)(=O)=O)c4F)ncc3F)c[nH]c12)N1CCN(C)CC1` [LONDAMOCITINIB] displayed an inhibition in vivo at 0.00476 mg/kg of 61%. In the data set with Rattus norvegicus [2], this compound displayed an inhibition in vivo at 0.0006 mg/kg of 68%.

By Papp A→B is commonly meant how fast a substance crosses the layer from the apical side. For `CN(CCC#N)C1CCN(C(=O)Cn2cc(NC(=O)c3cnn4cccnc34)c(-c3cc(Cl)ccc3OC(F)F)n2)CC1`, in data set [3], the solubility kinetic came out at 34 µM (≈ 20.8 µg/mL). Further, the Papp A→B in data set [4] came to 2.7 ×10⁻⁶ cm/s.

With `CCc1cc(O)c(F)cc1-c1ccc2c(-c3nc4c([nH]3)CCN(C(=O)c3cnc(N5CCCCC5)cn3)C4)n[nH]c2c1`, the T1/2 in data set [5] was found to be 9 h.

One may read the pKa as the pH at which an ionisable group is half protonated. Low values mean a stronger acid or weaker base, high ones a weaker acid or stronger base. `CCc1cc(O)c(F)cc1-c1ccc2c(-c3nc4c([nH]3)CCN(C3CCN(C)CC3)C4)n[nH]c2c1` registered a pKa in data set [6] of 10.5. In addition, the “inhibition (INH)” value in the data set on Mus musculus is 60%.
